{"source": "patent US11213604B2", "about": "“Composition for dressing cutaneous lesions and manufacturing method thereof” (priority 2016, dated 2022)", "origin": "cited, not measured here", "system": "cutaneous leishmanial ulcers", "conditions": "protocols (1), (3), (2) of Stahl et al., BMC Infectious Diseases 2014"}
{"substance": "sodium stilbogluconate", "values": [{"measurement": "Median healing time", "result": 9, "unit": "weeks"}]}
